# In patent publication EP3041353B1, “COMPOSITIONS COMPRISING BACTERIOSTATIC AGENTS AND BRILLIANT BLUE G” (priority 2013, dated 2015):
# Experiments:
# Assay type in all cases: cell-based
# Bacillus sp. = assay: Bacteriostatic effect of BAK with BBG/BBR: turbidity after 24 h incubation; parameters: key to Bakterienwachstum nach 24 h Inkubation: +: Bakterienwachstum nach 24 h Inkubation; -: kein Bakterienwachstum nach 24 h Inkubation
# Method: (§1) Zur Untersuchung des Einflusses von BBG auf die bakteriostatische Wirkung wurden Bakterien 24 h mit erfindungsgemäßen Zusammensetzungen, Benzalkoniumchlorid (BAK) und Octenidin (Oct) als Bakteriostatikum enthielten, inkubiert. Wenn sich die Inkubationsmischung trübte, wurde das als Bakterienwachstum interpretiert. Zum Vergleich wurde Brillantblau R (BBR) anstelle von BBG eingesetzt. Die Ergebnisse sind in den Tabellen 1-4 wiedergegeben. Tabelle 1: Einfluss von BBG und BBR auf die bakteriostatische Wirkung von BAK gegenüber Escherichia coli (E. coli), + = Bakterienwachstum nach 24 h Inkubation, - = kein Bakterienwachstum nach 24 h Inkubation, R = Brillantblau R (BBR), G = Brillantblau G (BBG).
# Tabelle 2: Einfluss von BBG und BBR auf die bakteriostatische Wirkung von BAK gegenüber Bacillus sp., + = Bakterienwachstum nach 24 h Inkubation, - = kein Bakterienwachstum nach 24 h Inkubation, R = Brillantblau R (BBR), G = Brillantblau G (BBG).
# Vibrio sp. Gal12 = assay: Bacteriostatic effect of Octenidin with BBG: turbidity after 24 h incubation; parameters: key: +: Bakterienwachstum nach 24 h Inkubation; -: kein Bakterienwachstum nach 24 h Inkubation
# Method: as §1
# (§2) Gram-negative Bakterien (hier E. coli) sind widerstandsfähiger als Gram-positive Bakterien (hier Bacillus sp.) und wachsen konzentrationsabhängig. […] Tabelle 3: Einfluss von BBG auf die bakteriostatische Wirkung von Octenidin (Oct) gegenüber Gram-negativen Bakterien., + = Bakterienwachstum nach 24 h Inkubation, - = kein Bakterienwachstum nach 24 h Inkubation, BBG = Brillantblau G.
# Escherichia coli DH5α = assay: as above; parameters: key: +: Bakterienwachstum nach 24 h Inkubation; -: kein Bakterienwachstum nach 24 h Inkubation
# Method: as §1, §2
# [1] = tested on: Pseudomonas putida DSM 291; assay: as above; parameters: key: +: Bakterienwachstum nach 24 h Inkubation; -: kein Bakterienwachstum nach 24 h Inkubation
# Method: as §1, §2
smiles,measurement,setting,value
"CCOc1ccc(Nc2ccc(C(=C3C=CC(=[N+](CC)Cc4cccc(S(=O)(=O)[O-])c4)C=C3C)c3ccc(N(CC)Cc4cccc(S(=O)(=O)O)c4)cc3C)cc2)cc1 [BBG, Brillantblau G]",Bakterienwachstum nach 24 h Inkubation,Bacillus sp.; 0.007% G + BAK 0.001%,-
same,Bakterienwachstum nach 24 h Inkubation,Bacillus sp.; 0.007% G + BAK 0.01%,-
same,Bakterienwachstum nach 24 h Inkubation,"Bacillus sp.; 0.030% G, Kein BAK",+
same,Einfluss auf das Bakterienwachstum,"Bacillus sp.; dye alone, no BAK (rechte Spalte, Tabelle 2)",beeinflussen das Bakterienwachstum nicht
same,Bakterienwachstum nach 24 h Inkubation,"Vibrio sp. Gal12; 0,007% BBG + Octenidin 0,01%",-
same,Bakterienwachstum nach 24 h Inkubation,"Vibrio sp. Gal12; 0,007% BBG + Octenidin 0,002%",+
same,Bakterienwachstum nach 24 h Inkubation,"Vibrio sp. Gal12; 0,007% BBG + Octenidin 0,003%",-
same,Bakterienwachstum nach 24 h Inkubation,"Vibrio sp. Gal12; 0,007% BBG + Octenidin 0,005%",-
same,Bakterienwachstum nach 24 h Inkubation,"Vibrio sp. Gal12; 0,007% BBG + Octenidin 0,007%",-
same,Bakterienwachstum nach 24 h Inkubation,"Vibrio sp. Gal12; 0,007% BBG + Octenidin 0,009%",-
same,Bakterienwachstum nach 24 h Inkubation,"Vibrio sp. Gal12; 0,007% BBG, Octenidin 0%",+
same,Bakterienwachstum nach 24 h Inkubation,"Vibrio sp. Gal12; 0,015% BBG + Octenidin 0,01%",-
same,Bakterienwachstum nach 24 h Inkubation,"Vibrio sp. Gal12; 0,015% BBG + Octenidin 0,002%",+
same,Bakterienwachstum nach 24 h Inkubation,"Vibrio sp. Gal12; 0,015% BBG + Octenidin 0,003%",+
same,Bakterienwachstum nach 24 h Inkubation,"Vibrio sp. Gal12; 0,015% BBG + Octenidin 0,005%",+
same,Bakterienwachstum nach 24 h Inkubation,"Vibrio sp. Gal12; 0,015% BBG + Octenidin 0,007%",-
same,Bakterienwachstum nach 24 h Inkubation,"Vibrio sp. Gal12; 0,015% BBG + Octenidin 0,009%",-
same,Bakterienwachstum nach 24 h Inkubation,"Vibrio sp. Gal12; 0,015% BBG, Octenidin 0%",+
same,Bakterienwachstum nach 24 h Inkubation,"Vibrio sp. Gal12; 0,030% BBG + Octenidin 0,01%",+
same,Bakterienwachstum nach 24 h Inkubation,"Vibrio sp. Gal12; 0,030% BBG + Octenidin 0,002%",+
same,Bakterienwachstum nach 24 h Inkubation,"Vibrio sp. Gal12; 0,030% BBG + Octenidin 0,003%",+
same,Bakterienwachstum nach 24 h Inkubation,"Vibrio sp. Gal12; 0,030% BBG + Octenidin 0,005%",+
same,Bakterienwachstum nach 24 h Inkubation,"Vibrio sp. Gal12; 0,030% BBG + Octenidin 0,007%",+
same,Bakterienwachstum nach 24 h Inkubation,"Vibrio sp. Gal12; 0,030% BBG + Octenidin 0,009%",+
same,Bakterienwachstum nach 24 h Inkubation,"Vibrio sp. Gal12; 0,030% BBG, Octenidin 0%",+
same,Bakterienwachstum nach 24 h Inkubation,"Escherichia coli DH5α; 0,007% BBG + Octenidin 0,01%",-
same,Bakterienwachstum nach 24 h Inkubation,"Escherichia coli DH5α; 0,007% BBG + Octenidin 0,002%",+
same,Bakterienwachstum nach 24 h Inkubation,"Escherichia coli DH5α; 0,007% BBG + Octenidin 0,003%",-
same,Bakterienwachstum nach 24 h Inkubation,"Escherichia coli DH5α; 0,007% BBG + Octenidin 0,005%",-
same,Bakterienwachstum nach 24 h Inkubation,"Escherichia coli DH5α; 0,007% BBG + Octenidin 0,007%",-
same,Bakterienwachstum nach 24 h Inkubation,"Escherichia coli DH5α; 0,007% BBG + Octenidin 0,009%",-
same,Bakterienwachstum nach 24 h Inkubation,"Escherichia coli DH5α; 0,007% BBG, Octenidin 0%",+
same,Bakterienwachstum nach 24 h Inkubation,"Escherichia coli DH5α; 0,015% BBG + Octenidin 0,01%",-
same,Bakterienwachstum nach 24 h Inkubation,"Escherichia coli DH5α; 0,015% BBG + Octenidin 0,002%",+
same,Bakterienwachstum nach 24 h Inkubation,"Escherichia coli DH5α; 0,015% BBG + Octenidin 0,003%",+
same,Bakterienwachstum nach 24 h Inkubation,"Escherichia coli DH5α; 0,015% BBG + Octenidin 0,005%",+
same,Bakterienwachstum nach 24 h Inkubation,"Escherichia coli DH5α; 0,015% BBG + Octenidin 0,007%",-
same,Bakterienwachstum nach 24 h Inkubation,"Escherichia coli DH5α; 0,015% BBG + Octenidin 0,009%",-
same,Bakterienwachstum nach 24 h Inkubation,"Escherichia coli DH5α; 0,015% BBG, Octenidin 0%",+
same,Bakterienwachstum nach 24 h Inkubation,"Escherichia coli DH5α; 0,030% BBG + Octenidin 0,01%",+
same,Bakterienwachstum nach 24 h Inkubation,"Escherichia coli DH5α; 0,030% BBG + Octenidin 0,002%",+
same,Bakterienwachstum nach 24 h Inkubation,"Escherichia coli DH5α; 0,030% BBG + Octenidin 0,003%",+
same,Bakterienwachstum nach 24 h Inkubation,"Escherichia coli DH5α; 0,030% BBG + Octenidin 0,005%",+
same,Bakterienwachstum nach 24 h Inkubation,"Escherichia coli DH5α; 0,030% BBG + Octenidin 0,007%",+
same,Bakterienwachstum nach 24 h Inkubation,"Escherichia coli DH5α; 0,030% BBG + Octenidin 0,009%",+
same,Bakterienwachstum nach 24 h Inkubation,"Escherichia coli DH5α; 0,030% BBG, Octenidin 0%",+
same,Bakterienwachstum nach 24 h Inkubation,"[1]; 0,007% BBG + Octenidin 0,01%",-
same,Bakterienwachstum nach 24 h Inkubation,"[1]; 0,007% BBG + Octenidin 0,002%",+
same,Bakterienwachstum nach 24 h Inkubation,"[1]; 0,007% BBG + Octenidin 0,003%",-
same,Bakterienwachstum nach 24 h Inkubation,"[1]; 0,007% BBG + Octenidin 0,005%",-
same,Bakterienwachstum nach 24 h Inkubation,"[1]; 0,007% BBG + Octenidin 0,007%",-
same,Bakterienwachstum nach 24 h Inkubation,"[1]; 0,007% BBG + Octenidin 0,009%",-
same,Bakterienwachstum nach 24 h Inkubation,"[1]; 0,007% BBG, Octenidin 0%",+
same,Bakterienwachstum nach 24 h Inkubation,"[1]; 0,015% BBG + Octenidin 0,01%",-
same,Bakterienwachstum nach 24 h Inkubation,"[1]; 0,015% BBG + Octenidin 0,002%",+
same,Bakterienwachstum nach 24 h Inkubation,"[1]; 0,015% BBG + Octenidin 0,003%",+
same,Bakterienwachstum nach 24 h Inkubation,"[1]; 0,015% BBG + Octenidin 0,005%",+
same,Bakterienwachstum nach 24 h Inkubation,"[1]; 0,015% BBG + Octenidin 0,007%",-
same,Bakterienwachstum nach 24 h Inkubation,"[1]; 0,015% BBG + Octenidin 0,009%",-
same,Bakterienwachstum nach 24 h Inkubation,"[1]; 0,015% BBG, Octenidin 0%",+
same,Bakterienwachstum nach 24 h Inkubation,"[1]; 0,030% BBG + Octenidin 0,01%",+
same,Bakterienwachstum nach 24 h Inkubation,"[1]; 0,030% BBG + Octenidin 0,002%",+
same,Bakterienwachstum nach 24 h Inkubation,"[1]; 0,030% BBG + Octenidin 0,003%",+
same,Bakterienwachstum nach 24 h Inkubation,"[1]; 0,030% BBG + Octenidin 0,005%",+
same,Bakterienwachstum nach 24 h Inkubation,"[1]; 0,030% BBG + Octenidin 0,007%",+
same,Bakterienwachstum nach 24 h Inkubation,"[1]; 0,030% BBG + Octenidin 0,009%",+
same,Bakterienwachstum nach 24 h Inkubation,"[1]; 0,030% BBG, Octenidin 0%",+
